For one compound, Kd results are on record in PMC11939889, “Efficient Incorporation of DOPA into Proteins Free from Competition with Endogenous Translation Termination Machinery” (Biomolecules, 2025).

The assay deals with T1, DOPARS (Methanocaldococcus jannaschii, UniProt Q57834, D158A/D286A/E220K/F261S/H283P/H70A/I159A/L282P/L65E/M285R/N268D/P284L/Y119F).
T1 construct: gene tyrS
The experiment in a line: isothermal titration calorimetry. The class given is binding. (In general: In ITC the heat of successive injections is recorded.)

In general, Kd refers to the free concentration of one partner at which half of the binding sites on the other are occupied at equilibrium, for simple one-to-one binding. Read a high Kd as weaker binding.

T1 sequence (Q57834 whole entry L65E/H70A/Y119F/D158A/I159A/E220K/F261S/N268D/L282P/H283P/P284L/M285R/D286A): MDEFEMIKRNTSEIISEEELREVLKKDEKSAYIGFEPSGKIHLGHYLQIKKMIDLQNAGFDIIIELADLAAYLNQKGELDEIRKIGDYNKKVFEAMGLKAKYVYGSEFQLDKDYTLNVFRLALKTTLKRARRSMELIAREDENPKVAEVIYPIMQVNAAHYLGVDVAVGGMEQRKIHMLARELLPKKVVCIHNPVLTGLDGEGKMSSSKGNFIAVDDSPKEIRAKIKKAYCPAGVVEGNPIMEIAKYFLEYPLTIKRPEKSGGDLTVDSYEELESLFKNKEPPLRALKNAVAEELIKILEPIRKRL

With `N[C@@H](Cc1ccc(O)c(O)c1)C(=O)O` [DOPA, 3,4-Dihydroxy-L-phenylalanine], binding was characterised by a dissociation constant (Kd) of 11.7 µM.
